{"source": "patent US8673979B2", "about": "“Pharmaceutical compositions for headache, migraine, nausea and emesis” (Meditor Pharmaceuticals Ltd., priority 2000, dated 2014)", "key": {"[1]": {"settings": "therapeutic doses; cited from earlier work"}, "migraine attack": {"system": "migraine attack", "assay": "Case reports: oral tablets during migraine attacks", "format": "in vivo, human", "settings": "for Side effects of past medical treatment: in vivo", "protocol": "Previous medical history: The subject is a smoking person first diagnosed as a classical migraine sufferer. Except for this they are completely healthy. Until two years ago the frequency of the migraine attacks was seven episodes per month. During the last two years they were treated with different kinds of recognized medications, with little or no success. Due to lack of response to the medical treatment during the migraine attacks, they tried alternative medicine treatments.\nFirst attack: The subject suffered an acute migraine attack that lasted 72 hours. […] On the next day the subject received a single dose of 50 mg S-ethylisothiouronium diethylphosphate (2 tablets of 25 mg each). […] Between 10 to 15 minutes following administration the pain abruptly disappeared, as did all other symptoms, which appeared during the migraine attack.\nSecond attack: (three weeks later) The second migraine attack started during the night. On the next day the subject received once again 2 tablets of S-ethylisothiouronium diethylphosphate (50 mg). This time the intake of the tablets was during the peak of the migraine attack, after having a meal. Within 20 minutes the headache was relieved, the subject was able to focus their eyesight, and the photophobia disappeared. There was a weak headache but its intensity was reduced. Three hours later the subject took two more tablets of S-ethylisothiouronium diethylphosphate (50 mg). Within 15 minutes the migraine pain disappeared.\nThird attack: (two and a half weeks after the second attack) the migraine attack started on their way to work. An hour after onset within the peak of the migraine attack, the subject received 2 tablets of S-ethylisothiouronium diethylphosphate (each of 25 mg). Drug was taken on empty stomach. Within 11 minutes the migraine symptoms disappeared.\nPrevious Medical History: The subject is a non-smoking person suffering from migraine attacks during the last two years. The frequency of the migraine attacks is once a month before the menstruation period. The pain appears in the temples, the sinuses and spreads down to the lower jaw. The duration of the photophobia was about 48 hours. So far the subject has not applied to receive specific medical treatment and used to take conventional analgesic drugs.\nFirst attack: The onset of an acute migraine attack was in the morning and the symptoms grew stronger during the day. Just before noon time the subject received one tablet of S-ethylisothiouronium diethylphosphate (25 mg). […] Two hours later the subject received 2 more tablets of S-ethylisothiouronium diethylphosphate (each of 25 mg). Ten minutes later, the migraine pain disappeared.\nSecond attack: (about four weeks after the first attack) The migraine attack started as a consequence of very hot weather conditions. The intensity of this attack was greater than the usual migraine attacks. In the morning, the subject received 2 tablets of S-ethylisothiouronium diethylphosphate (50 mg) that were taken on an empty stomach. Within 20 minutes of S-ethylisothiouronium diethylphosphate intake there was a significant relief in migraine pain. Fifteen minutes later the pain disappeared. Later that day, during the afternoon, the subject suffered a weak pain. This time the subject self administered analgesic drugs and the pain disappeared."}, "[2]": {"system": "acute migraine attack (headache)", "assay": "Dose escalating exploratory study of Difetur tablets for acute migraine attack: headache reduction", "format": "in vivo, human", "settings": "for Percentage of Patients Benefited by Treatment: headache grade 3-4 reduced to 1-2; for Time elapsed to Effect: time after ingestion to headache grade 1-2", "protocol": "Dose escalating exploratory study on the safety and efficacy of Difetur tablets for the treatment of acute migraine attack.\n(§1) The purpose of following exploratory protocol is to evaluate the safety and potential efficacy of Difetur (S-ethylisothiouronium diethylphosphate) tablets, in escalating doses starting at 10 mg and up to 50 mg, in the treatment of a single acute migraine attack. The study was designed as an open study in a selected population of subjects classified according to IHS criteria as suffering from migraine headaches of moderate or severe intensity, without aura. The study was conducted according to established international criteria for evaluating safety and efficacy for migraine treatment.\n(§2) The study was performed as a 5 arm (groups) study. Only female patients classified as suffering from migraine without aura, according to IHS criteria are enrolled in the study. Each group consists of ten migraine patients who are treated during an acute migraine attack with Difetur tablets in a hospital setting. The initial dose of Difetur is 10 mg (1 tablet), consequently increasing to 20 mg, 30 mg, 40 mg, and 50 mg. The total number of patients to be enrolled is 50. The patients are hospitalized and followed for at least 4 hours to assess the safety, efficacy and possible side effects of Difetur.\nIn the first group of 10 patients each receive the initial dose of 10 mg of the study medication in a single tablet form. The dose of 50 mg is given as two tablets of 25 mg each. The tablets are individually packed in blister package, and have a label identifying the study medication as an investigational drug. Each dose in an escalating manner is given to 10 patients. The medication is swallowed with a glass of water under the supervision of an attending physician.\nHeadache severity is graded verbally in a 4-points scale: severe (grade 4), moderate (grade 3), mild (grade 2), or no pain (grade 1). Success is considered as a reduction of the headache severity from a severe or moderate headache (grade 3-4) to mild or no pain (grade 1-2)."}, "[3]": {"system": "emesis during migraine attack", "assay": "Difetur tablets: emesis/nausea treatment during migraine attack", "format": "in vivo, human", "protocol": "as §1, §2\n4.2 Secondary Efficacy Targets are the Reduction of Nausea, Vomiting and Light And Sound Sensitivity.\nThese are assigned for their presence, absence or disappearance as documented by the patient."}, "[4]": {"system": "acute migraine attack (headache)", "assay": "Clinical trial of intravenous Difetur 10% solution in acute migraine attack", "format": "in vivo, human", "settings": "for Percentage of Patients Benefited by Treatment / Mean time elapsed to Effect: 0.6 mg/kg IV drip; for Mean time elapsed to Effect: to grade 1-0", "protocol": "as §1, with “protocol was” for “protocol is”, “Difetur 10% solution for injection,” for “Difetur (S-ethylisothiouronium diethylphosphate) tablets,”, “in dose 0.6 mg/kg,” for “in escalating doses starting at 10 mg and up to 50 mg,”, “in” for “in the”\nDifetur was presented as 10% (100 mg/mL) solution in 1 mL ampoules. It was dissolved in 100 mL of saline solution in intravenous device before treatment. The dose of Difetur was 0.6 mg/kg, given by intravenous drip during 10 min.\nHeadache severity was graded verbally on a 5-point scale: very severe (grade 4), severe (grade 3), moderate (grade 2), mild (grade 1), no pain (grade 0). Success was considered as reduction of the headache severity from very severe, severe or moderate (grade 4-2) to mild or no pain (grade 1-0)."}, "[5]": {"settings": "Case 2, second attack, 50 mg oral, empty stomach"}}, "data": [{"molecule": "CN1C[C@H](C(=O)N[C@]2(C)O[C@@]3(O)[C@@H]4CCCN4C(=O)[C@H](Cc4ccccc4)N3C2=O)C=C2c3cccc4[nH]cc(c34)C[C@H]21", "note": "[ergotamine]", "values": [{"measurement": "Patients with nausea and vomiting", "setting": "[1]", "result": "up to 10%"}]}, {"molecule": "CN(C)CCc1c[nH]c2ccc(C[C@H]3COC(=O)N3)cc12", "note": "[Zomig, reference compound]", "values": [{"measurement": "Side effects of past medical treatment", "setting": "migraine attack", "result": "various strong side effects"}]}, {"molecule": "CNS(=O)(=O)Cc1ccc2[nH]cc(CCN(C)C)c2c1", "note": "[Imitrex, Sumatriptan succinate, reference compound]", "values": [{"measurement": "Side effects of past medical treatment", "setting": "migraine attack", "result": "various strong side effects"}]}, {"molecule": "S-ethylisothiouronium diethylphosphate [Difetur]", "values": [{"measurement": "Percentage of Patients Benefited by Treatment", "setting": "[2]; 10 mg oral tablet", "result": 0, "unit": "%"}, {"measurement": "Percentage of Patients Benefited by Treatment", "setting": "[2]; 20 mg oral", "result": 70, "unit": "%"}, {"measurement": "Time elapsed to Effect", "setting": "[2]; 20 mg oral", "result": 43, "unit": "min"}, {"measurement": "Percentage of Patients Benefited by Treatment", "setting": "[2]; 30 mg oral", "result": 70, "unit": "%"}, {"measurement": "Time elapsed to Effect", "setting": "[2]; 30 mg oral", "result": 58, "unit": "min"}, {"measurement": "Side effects", "setting": "[2]; clinical trials, human subjects", "result": "no side effects"}, {"measurement": "Time to dramatic improvement", "setting": "[2]; in some cases", "result": "≤ 15", "unit": "min"}, {"measurement": "Time to reduction of migraine symptoms, on average", "setting": "[2]; oral, at peak of migraine attack", "result": "around 45 minutes"}, {"measurement": "Time to relief", "setting": "[2]; treatment initiated at peak of migraine attack", "result": "≤ 60", "unit": "min"}, {"measurement": "Percentage of Patients Affected by Treatment (positive anti-emetic response)", "setting": "[3]; 10 mg oral", "result": 70, "unit": "%"}, {"measurement": "Time elapsed until Effect (termination of emesis)", "setting": "[3]; 10 mg oral", "result": 28, "unit": "min"}, {"measurement": "Percentage of Patients Affected by Treatment (positive anti-emetic response)", "setting": "[3]; 20 mg oral", "result": 100, "unit": "%"}, {"measurement": "Time elapsed until Effect (termination of emesis)", "setting": "[3]; 20 mg oral", "result": 25, "unit": "min"}, {"measurement": "Percentage of Patients Affected by Treatment (positive anti-emetic response)", "setting": "[3]; 30 mg oral", "result": 100, "unit": "%"}, {"measurement": "Time elapsed until Effect (termination of emesis)", "setting": "[3]; 30 mg oral", "result": 29, "unit": "min"}, {"measurement": "Effect of low doses on nausea", "setting": "[3]; low doses ineffective or less effective on headache", "result": "effective at reducing or abolishing the symptoms of nausea"}, {"measurement": "Percentage of Patients Benefited by Treatment", "setting": "[4]; headache grade 2", "result": 87, "unit": "%"}, {"measurement": "Mean time elapsed to Effect", "setting": "[4]; headache grade 2", "result": 13.7, "unit": "min"}, {"measurement": "Percentage of Patients Benefited by Treatment", "setting": "[4]; headache grade 3", "result": 100, "unit": "%"}, {"measurement": "Mean time elapsed to Effect", "setting": "[4]; headache grade 3", "result": 25.5, "unit": "min"}, {"measurement": "Percentage of Patients Benefited by Treatment", "setting": "[4]; headache grade 4", "result": 100, "unit": "%"}, {"measurement": "Mean time elapsed to Effect", "setting": "[4]; headache grade 4", "result": 50, "unit": "min"}, {"measurement": "Headache relief, overall", "setting": "[4]; 0.6 mg/kg IV, 13 patients, all except one", "result": "significant headache relief"}, {"measurement": "Side effects", "setting": "migraine attack; Case 1, 50 mg oral", "result": "No side effects"}, {"measurement": "Time to headache relief", "setting": "migraine attack; Case 1, second attack, 50 mg oral, after a meal", "result": "≤ 20", "unit": "min"}, {"measurement": "Time to disappearance of migraine pain", "setting": "migraine attack; Case 1, second attack, further 50 mg three hours later", "result": "≤ 15", "unit": "min"}, {"measurement": "Time to disappearance of migraine symptoms", "setting": "migraine attack; Case 1, third attack, 50 mg oral, empty stomach", "result": "≤ 11", "unit": "min"}, {"measurement": "Frequency of migraine attacks after treatment", "setting": "migraine attack; Case 1, previously seven episodes per month", "result": "about three"}, {"measurement": "Side effects", "setting": "migraine attack; Case 2, 25 or 50 mg oral", "result": "No side effects"}, {"measurement": "Time to disappearance of migraine pain", "setting": "migraine attack; Case 2, first attack, 2 more 25 mg tablets two hours later", "result": "Ten"}, {"measurement": "Change in migraine pain", "setting": "migraine attack; Case 2, first attack, one 25 mg tablet", "result": "No substantial change"}, {"measurement": "Time from significant relief to disappearance of pain", "setting": "migraine attack; [5]", "result": "Fifteen"}, {"measurement": "Time to significant relief in migraine pain", "setting": "migraine attack; [5]", "result": "≤ 20", "unit": "min"}, {"measurement": "Time to elimination of migraine symptoms", "setting": "migraine attack; both case reports, at peak of attack", "result": "less than 20 minutes"}, {"measurement": "Headache recurrence (rebound/relapse)", "setting": "migraine attack; case reports", "result": "not observed"}]}]}
